This is an account of results in ChEMBL document CHEMBL5120859, “Optimization of 4-arylthiophene-3-carboxylic acid derivatives as inhibitors of ANO1: Lead optimization studies toward their analgesic efficacy for inflammatory pain” (Eur J Med Chem, 2022).

For series [1], the target named is Voltage-dependent N-type calcium channel subunit alpha-1B (Homo sapiens) (UniProt Q00975). In words: Inhibition of Cav2.2 (unknown origin) at a holding potential +10 mV at 30 uM by whole cell patch clamp electrophysiology relative to control. A general note: In patch-clamp work, channel activity is measured electrically.
Voltage-dependent N-type calcium channel subunit alpha-1B (Homo sapiens), sequence (Q00975 whole entry, looked up): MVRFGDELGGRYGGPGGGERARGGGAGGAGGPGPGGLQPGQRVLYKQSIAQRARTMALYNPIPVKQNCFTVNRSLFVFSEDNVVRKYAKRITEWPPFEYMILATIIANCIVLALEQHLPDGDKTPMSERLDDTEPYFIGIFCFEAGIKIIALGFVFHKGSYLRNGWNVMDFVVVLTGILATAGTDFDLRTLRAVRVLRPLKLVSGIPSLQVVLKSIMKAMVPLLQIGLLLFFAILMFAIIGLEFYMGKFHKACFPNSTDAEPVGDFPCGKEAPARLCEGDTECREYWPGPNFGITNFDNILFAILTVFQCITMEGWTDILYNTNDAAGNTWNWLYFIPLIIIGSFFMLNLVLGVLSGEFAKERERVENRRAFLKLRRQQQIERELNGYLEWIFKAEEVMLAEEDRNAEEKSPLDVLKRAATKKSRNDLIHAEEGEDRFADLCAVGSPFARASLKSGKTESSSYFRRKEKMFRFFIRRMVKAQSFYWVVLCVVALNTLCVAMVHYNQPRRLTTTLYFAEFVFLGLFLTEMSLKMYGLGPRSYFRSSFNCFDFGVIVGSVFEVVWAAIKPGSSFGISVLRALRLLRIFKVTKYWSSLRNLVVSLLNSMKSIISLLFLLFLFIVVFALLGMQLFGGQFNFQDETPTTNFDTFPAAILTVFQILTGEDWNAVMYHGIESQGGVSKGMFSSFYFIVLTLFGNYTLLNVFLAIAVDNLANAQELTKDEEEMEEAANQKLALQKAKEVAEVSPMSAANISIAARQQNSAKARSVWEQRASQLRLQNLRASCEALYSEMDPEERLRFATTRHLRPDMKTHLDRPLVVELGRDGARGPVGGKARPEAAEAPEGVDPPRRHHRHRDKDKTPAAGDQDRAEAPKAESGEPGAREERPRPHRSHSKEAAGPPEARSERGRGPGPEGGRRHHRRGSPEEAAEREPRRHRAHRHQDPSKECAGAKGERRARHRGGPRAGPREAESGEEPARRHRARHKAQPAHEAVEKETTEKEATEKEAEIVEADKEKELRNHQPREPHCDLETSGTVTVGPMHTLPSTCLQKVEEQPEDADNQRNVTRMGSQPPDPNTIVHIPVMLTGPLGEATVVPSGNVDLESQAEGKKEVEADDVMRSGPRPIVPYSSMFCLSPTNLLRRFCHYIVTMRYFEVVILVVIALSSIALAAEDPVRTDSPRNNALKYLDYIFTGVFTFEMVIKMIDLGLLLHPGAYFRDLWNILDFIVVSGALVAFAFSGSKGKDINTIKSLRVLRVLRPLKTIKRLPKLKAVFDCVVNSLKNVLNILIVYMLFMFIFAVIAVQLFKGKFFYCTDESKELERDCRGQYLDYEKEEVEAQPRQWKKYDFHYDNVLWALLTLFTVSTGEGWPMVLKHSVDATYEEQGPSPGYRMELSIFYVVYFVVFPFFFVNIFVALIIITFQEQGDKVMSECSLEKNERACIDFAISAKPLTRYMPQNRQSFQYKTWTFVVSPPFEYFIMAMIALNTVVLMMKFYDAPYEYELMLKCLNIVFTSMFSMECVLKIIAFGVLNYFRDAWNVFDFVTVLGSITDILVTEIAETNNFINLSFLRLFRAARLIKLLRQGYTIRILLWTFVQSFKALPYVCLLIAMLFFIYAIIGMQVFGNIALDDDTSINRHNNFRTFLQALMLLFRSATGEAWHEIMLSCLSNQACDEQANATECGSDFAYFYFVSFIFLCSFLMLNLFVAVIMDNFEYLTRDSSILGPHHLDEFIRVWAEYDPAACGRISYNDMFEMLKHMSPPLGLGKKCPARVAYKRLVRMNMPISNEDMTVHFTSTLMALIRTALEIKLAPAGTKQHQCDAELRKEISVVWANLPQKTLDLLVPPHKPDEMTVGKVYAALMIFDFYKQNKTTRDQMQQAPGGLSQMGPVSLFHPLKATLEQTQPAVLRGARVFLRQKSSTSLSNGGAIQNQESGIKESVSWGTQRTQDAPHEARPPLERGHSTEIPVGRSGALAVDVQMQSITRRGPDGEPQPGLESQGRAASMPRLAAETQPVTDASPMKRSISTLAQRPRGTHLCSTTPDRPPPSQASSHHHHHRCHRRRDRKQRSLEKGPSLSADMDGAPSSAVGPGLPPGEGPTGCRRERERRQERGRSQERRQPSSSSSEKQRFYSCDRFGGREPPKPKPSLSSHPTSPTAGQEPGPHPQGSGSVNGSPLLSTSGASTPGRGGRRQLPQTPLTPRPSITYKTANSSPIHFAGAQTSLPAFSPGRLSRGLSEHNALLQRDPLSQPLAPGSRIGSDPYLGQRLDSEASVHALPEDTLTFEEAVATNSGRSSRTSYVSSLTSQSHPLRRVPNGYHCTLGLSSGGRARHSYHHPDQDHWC
Series [2] addresses T1, Anoctamin-1 (Homo sapiens) (UniProt Q5XXA6).
T1 sequence (whole entry): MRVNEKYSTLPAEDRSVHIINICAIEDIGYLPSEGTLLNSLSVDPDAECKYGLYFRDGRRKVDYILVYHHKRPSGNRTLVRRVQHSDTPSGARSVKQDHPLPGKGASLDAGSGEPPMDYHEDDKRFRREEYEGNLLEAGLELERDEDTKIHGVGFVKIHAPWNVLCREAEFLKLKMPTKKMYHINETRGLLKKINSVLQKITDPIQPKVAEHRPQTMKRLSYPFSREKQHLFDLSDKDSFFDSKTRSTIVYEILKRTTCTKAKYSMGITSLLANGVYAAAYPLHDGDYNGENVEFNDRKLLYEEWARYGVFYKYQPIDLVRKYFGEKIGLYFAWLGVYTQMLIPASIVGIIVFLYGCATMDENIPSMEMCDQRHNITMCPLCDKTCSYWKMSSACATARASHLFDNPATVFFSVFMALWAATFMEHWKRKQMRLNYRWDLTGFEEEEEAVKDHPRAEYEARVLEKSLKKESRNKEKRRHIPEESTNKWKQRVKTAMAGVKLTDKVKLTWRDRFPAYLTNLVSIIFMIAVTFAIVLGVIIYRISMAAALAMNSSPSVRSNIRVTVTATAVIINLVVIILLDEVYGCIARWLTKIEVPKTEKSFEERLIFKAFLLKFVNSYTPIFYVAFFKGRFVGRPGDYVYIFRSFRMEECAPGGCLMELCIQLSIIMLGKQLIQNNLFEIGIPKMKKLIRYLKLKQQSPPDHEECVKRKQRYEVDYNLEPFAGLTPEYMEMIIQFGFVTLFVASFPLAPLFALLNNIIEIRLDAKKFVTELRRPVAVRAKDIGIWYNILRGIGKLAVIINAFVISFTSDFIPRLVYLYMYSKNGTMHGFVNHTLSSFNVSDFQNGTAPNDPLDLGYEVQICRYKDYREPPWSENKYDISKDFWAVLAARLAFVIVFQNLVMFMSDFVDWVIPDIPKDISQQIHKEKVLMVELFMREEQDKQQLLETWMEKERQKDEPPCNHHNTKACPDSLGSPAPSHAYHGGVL
The series is described as follows: Inhibition of YFP tagged ANO1 (unknown origin) expressed in FRT cells at 30 uM incubated for 24 hrs by whole cell patch clamp electrophysiology relative to control. It counts as cell-based.

The nature of series [3]: Acute toxicity in C57BL/6 mouse assessed as animal survival at 1000 mg/kg,po measured after 24 hrs. It counts as organism-based. The conditions noted are these: in vivo.
The target of another series is T2, Anoctamin-2 (Homo sapiens, UniProt Q9NQ90).
T2 sequence (Q9NQ90 whole entry): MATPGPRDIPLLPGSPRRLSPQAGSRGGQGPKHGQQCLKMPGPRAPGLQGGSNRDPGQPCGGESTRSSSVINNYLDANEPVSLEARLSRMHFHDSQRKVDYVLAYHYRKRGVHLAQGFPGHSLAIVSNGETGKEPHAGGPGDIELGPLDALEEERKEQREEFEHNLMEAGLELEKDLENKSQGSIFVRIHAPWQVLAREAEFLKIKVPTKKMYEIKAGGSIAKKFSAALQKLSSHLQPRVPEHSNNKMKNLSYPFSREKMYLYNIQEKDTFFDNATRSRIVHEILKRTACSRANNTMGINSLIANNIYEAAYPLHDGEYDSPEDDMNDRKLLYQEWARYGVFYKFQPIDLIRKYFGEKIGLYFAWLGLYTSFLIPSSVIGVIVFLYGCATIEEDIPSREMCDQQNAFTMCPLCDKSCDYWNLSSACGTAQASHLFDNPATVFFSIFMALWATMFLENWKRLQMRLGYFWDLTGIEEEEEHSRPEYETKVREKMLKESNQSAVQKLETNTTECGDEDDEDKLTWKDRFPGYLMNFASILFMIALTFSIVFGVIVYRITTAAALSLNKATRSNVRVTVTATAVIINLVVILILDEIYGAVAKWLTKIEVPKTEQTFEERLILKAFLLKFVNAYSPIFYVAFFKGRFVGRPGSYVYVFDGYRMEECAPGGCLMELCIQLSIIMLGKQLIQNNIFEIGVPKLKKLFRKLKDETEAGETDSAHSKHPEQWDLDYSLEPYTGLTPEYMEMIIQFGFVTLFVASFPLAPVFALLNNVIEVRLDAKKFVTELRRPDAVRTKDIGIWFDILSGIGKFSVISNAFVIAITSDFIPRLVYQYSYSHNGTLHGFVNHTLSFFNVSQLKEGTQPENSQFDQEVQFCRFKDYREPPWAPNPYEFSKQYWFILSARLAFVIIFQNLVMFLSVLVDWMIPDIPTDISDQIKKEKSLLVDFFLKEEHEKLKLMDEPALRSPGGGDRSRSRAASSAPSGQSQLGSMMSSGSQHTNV
In words: Inhibition of human ANO2 expressed in HEK293 cells incubated for 5 mins by whole cell patch clamp electrophysiology. The series is classed as cell-based.

The nature of series [4]: Tmax in C57BL/6 mouse at 80 mg/kg,IG measured upto 24 hrs by HPLC-MS/MS analysis. The series is classed as ADME, organism-based. The note with it: in vivo, po.
Series [5] in a line: Tmax in C57BL/6 mouse at 40 mg/kg,IG measured upto 24 hrs by HPLC-MS/MS analysis. It counts as ADME, organism-based. The note with it: in vivo, po.
A short description of series [6]: Volume of distribution at steady state in C57BL/6 mouse at 40 mg/kg,iv measured upto 24 hrs by HPLC-MS/MS analysis. The series is classed as ADME, organism-based. The note with it: in vivo, read-out: Vdss.
In series [7] the target is Transient receptor potential cation channel subfamily V member 1 (Homo sapiens) (UniProt Q8NER1). In words: Inhibition of TRPV1 (unknown origin) at a holding potential +100 mV at 30 uM by whole cell patch clamp electrophysiology relative to control.
Transient receptor potential cation channel subfamily V member 1 (Homo sapiens), sequence (Q8NER1 whole entry): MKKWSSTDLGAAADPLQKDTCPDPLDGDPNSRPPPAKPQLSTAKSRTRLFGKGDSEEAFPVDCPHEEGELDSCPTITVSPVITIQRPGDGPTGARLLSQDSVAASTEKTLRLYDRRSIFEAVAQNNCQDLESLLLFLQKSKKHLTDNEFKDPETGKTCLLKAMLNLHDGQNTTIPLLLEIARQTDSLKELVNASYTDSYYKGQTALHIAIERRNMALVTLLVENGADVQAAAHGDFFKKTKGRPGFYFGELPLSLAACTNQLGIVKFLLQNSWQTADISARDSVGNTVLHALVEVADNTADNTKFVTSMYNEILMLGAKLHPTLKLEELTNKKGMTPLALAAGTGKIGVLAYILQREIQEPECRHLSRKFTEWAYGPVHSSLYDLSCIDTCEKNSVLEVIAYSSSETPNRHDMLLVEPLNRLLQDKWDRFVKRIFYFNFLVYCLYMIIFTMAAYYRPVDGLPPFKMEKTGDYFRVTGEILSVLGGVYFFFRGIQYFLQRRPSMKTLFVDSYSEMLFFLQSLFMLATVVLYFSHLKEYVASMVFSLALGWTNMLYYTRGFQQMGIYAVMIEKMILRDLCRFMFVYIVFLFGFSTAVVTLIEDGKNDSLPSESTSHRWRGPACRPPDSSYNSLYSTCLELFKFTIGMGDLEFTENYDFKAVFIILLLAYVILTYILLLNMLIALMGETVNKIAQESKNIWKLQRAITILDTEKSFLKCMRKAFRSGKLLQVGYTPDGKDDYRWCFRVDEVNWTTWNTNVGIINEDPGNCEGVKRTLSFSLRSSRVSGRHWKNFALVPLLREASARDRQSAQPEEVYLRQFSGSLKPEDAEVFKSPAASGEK
Series [8] in a line: Clearance in C57BL/6 mouse at 40 mg/kg,iv measured upto 24 hrs by HPLC-MS/MS analysis. It counts as ADME, organism-based. The note with it: in vivo.
The next series has as its target T3, Anoctamin-1 (Homo sapiens, UniProt Q5XXA6).
T3 sequence (Q5XXA6 whole entry): T1 sequence (whole entry)
In words: Inhibition of YFP tagged ANO1 (unknown origin) expressed in FRT cells incubated for 24 hrs by fluorescence plate reader assay. The series is classed as cell-based.

Series [9] can be described thus: Cmax in C57BL/6 mouse at 40 mg/kg,iv measured upto 24 hrs by HPLC-MS/MS analysis. The series is classed as ADME, organism-based. Also on record: time < 24 hrs, dose 40 mg/kg, route iv. The note with it: in vivo.
Series [10] is described as follows: AUC (0 to t) in C57BL/6 mouse at 40 mg/kg,IG measured upto 24 hrs by HPLC-MS/MS analysis. It counts as ADME, organism-based. The note with it: in vivo, po. More on the design: dose 40 mg/kg, time < 24 hrs, route ig.
Series [11] in a line: Tmax in C57BL/6 mouse at 40 mg/kg,iv measured upto 24 hrs by HPLC-MS/MS analysis. The series is classed as ADME, organism-based. The note with it: in vivo.
Series [12] is described as follows: AUC (0 to t) in C57BL/6 mouse at 40 mg/kg,iv measured upto 24 hrs by HPLC-MS/MS analysis. More on the design: dose 40 mg/kg, time < 24 hrs, route iv. It counts as ADME, organism-based. The conditions noted are these: in vivo.
Series [13] in a line: Brain concentration in C57BL/6 mouse at 40 mg/kg,IG measured after 6 hrs by HPLC analysis. The series is classed as ADME, organism-based. The note with it: po, read-out: Ct.

As usually defined, the inhibition is the relative decrease from the control value, in per cent. What is called IC50 is the concentration needed to halve the response being measured. Low readings indicate greater potency, high ones weaker potency. The Tmax is the time from dosing to the highest level. In general, clearance refers to the volume of plasma or blood freed of the substance per unit of time. A high value points to a high capacity for elimination. By Cmax is commonly meant the peak of the concentration-time curve. One may read the AUC(0-t) as the area under the concentration-time curve up to a stated or last time point. The low end stands for low exposure, the high end for high exposure. Take `O=C(Nc1scc(-c2ccc(Cl)cc2)c1C(=O)O)c1cc(F)ccc1F`: the inhibition in series [1] was 32%; in series [2] it was 95.6%; in series [7], 17%. In addition, the Activity result in [3] is reported as “Non-Toxic”. The values for the IC50 on Anoctamin-2 and at Anoctamin-1 were 8.7 µM and 0.024 µM, respectively. Further, the figures for the Tmax in series [4], in [5] and in series [11] were 10.2 min, 15 min and 4.8 min, respectively. In addition, the Vd in series [6] amounted to 0.8 L/kg. Further, the clearance in [8] was 1.73 mL/min/kg. Also, the Cmax in series [9] worked out at 183 µg/mL. Also, the area under the curve AUC(0-t) at 24 h in series [10] stood at 265 µg·h/mL; in series [12], 350 µg·h/mL. In addition, in series [13], the concentration at 6 h came out at 337 ng/g.
